{"source": "patent US20090081279A1", "about": "“Skin Dressings” (priority 2005, published 2009)", "key": {"[1]": {"settings": "under normal conditions; cited from earlier work"}, "moist skin": {"tested_on": "moist skin", "assay": "Skin reddening (dermal vasodilation) after applying dried PVA layer with pre-generated GSNO onto moist skin", "format": "in vivo", "text": "GSNO can be released from the layer simply by applying the layer onto a moist surface (e.g. wound bed). Once released, GSNO undergoes a slow decomposition to generate nitric oxide. The release of GSNO from the layer is relatively rapid."}, "[2]": {"assay": "Stability of GSNO in dried PVA layer", "format": "physicochemical", "settings": "in the dried layer of PVA, especially if stored in a moisture-free atmosphere", "experimental": "In one preferred embodiment of this type, the dressing comprises a layer of dried PVA containing pre-generated S-nitrosothiol. The layer is formed from PVA, a source of nitrite (preferably potassium nitrite) and a thiol (preferably L-glutathione). In a typical example of this embodiment both of these additives are added to the PVA solution prior to the drying. S-nitrosothiol (GSNO in the preferred case) is generated within the layer during the drying step. Nitrosothiols are known to be rather unstable in aqueous solutions. Nevertheless, GSNO was found very stable in the dried layer of PVA, especially if stored in a moisture-free atmosphere."}, "[3]": {"settings": "under normal conditions; cited from earlier work", "remark": "listed apart in the source"}, "[4]": {"assay": "Effect of pH on production/decomposition of GSNO in aqueous solution of potassium nitrite and L-glutathione", "format": "physicochemical", "experimental": "The following reagents were prepared: • Reagent 1: Na-phosphate buffer (pH 7.4, 0.1 M) • Reagent 2: Griess reagent: 20 mg of N-(1-Naphthyl)ethylendiamine dihydrochloride (NADD)+500 mg of sulphanilamide dissolved in 2 mL of DMSO. (N.B. This solution is light sensitive and should be kept in the dark as much as possible) • Reagent 3: Mercuric chloride (10 mM) in DMSO (13.58 mg of HgCl2 in 5 mL of DMSO)\nThe six-step procedure set out below was then followed: • 1. Dispense 1.5 mL of Reagent 1 into a plastic cuvette • 2. Add 200 μL of the sample (i.e. sample in which GSNO concentration is to be determined) • 3. Add 1.17 mL of DI water • 4. Add 100 μL of Reagent 2 • 5. Add 30 μL of Reagent 3 and give the solution a good mix • 6. Read absorbance of the resulting mixture at 496 nm in 10 min.\nThe concentration of GSNO can be calculated from the absorbance reading using the molar absorption coefficient for GSNO=12,500 M^−1 cm^−1.\nThe rate of the GSNO production and subsequent decomposition in solutions containing potassium nitrite (5 mM) and L-glutathione (5 mM) was studied at pH 3 (citrate-phosphate buffer, 0.1 M), pH 5 (citrate-phosphate buffer, 0.1 M) and pH 7 (phosphate buffer, 0.1 M)."}}}
{"molecule": "[N]=O", "note": "[NO, Nitric oxide]", "values": [{"measurement": "Maximum solubility in water", "setting": "[1]", "value": "approximately 1.7 mM"}]}
{"molecule": "N[C@@H](CCC(=O)N[C@@H](CSN=O)C(=O)NCC(=O)O)C(=O)O", "note": "[GSNO, S-nitrosoglutathione]", "values": [{"measurement": "Reversibility of skin reddening", "setting": "moist skin; after removal of the patch", "value": "totally reversible"}, {"measurement": "Time to reddening of the skin due to dermal vasodilation", "setting": "moist skin; dried PVA layer with pre-generated GSNO applied onto moist skin", "value": "≤ 1", "unit": "min"}, {"measurement": "Stability of GSNO", "setting": "[2]", "value": "very stable"}, {"measurement": "Time to total (100%) decomposition", "setting": "[3]", "value": "hours/days"}, {"measurement": "Stability of GSNO produced", "setting": "[4]; pH 5 compared with pH 3", "value": "slightly higher at pH 5 compared with that at pH 3"}, {"measurement": "Initial production of GSNO", "setting": "[4]; pH 5 compared with pH 3 (citrate-phosphate buffer, 0.1 M)", "value": "slower at pH 5 compared with pH 3"}, {"measurement": "Production of GSNO", "setting": "[4]; pH 7 (phosphate buffer, 0.1 M), potassium nitrite 5 mM, L-glutathione 5 mM", "value": "No production"}]}
